Test results as given in patent US9328374B2, “Selective culture medium and method for detecting carbapenem-resistant bacteria in a test sample” (Institut National de la Sante et de la Recherche Medicale …, priority 2011, dated 2016).

Assays:
Experiment in all cases: MIC of imipenem, ertapenem and meropenem
K. pneumoniae = assay type: cell-based, Klebsiella pneumoniae
P. rettgeri = assay type: cell-based, Providencia rettgeri
P. stuartii = assay type: cell-based, Providencia stuartii
E. aerogenes = assay type: cell-based, Enterobacter aerogenes

Measured: MIC

C[C@@H](O)[C@H]1C(=O)N2C(C(=O)O)=C(SCCN=CN)C[C@H]12 [IPM, imipenem]
1.5 µg/mL: K. pneumoniae; K. pneumoniae MEK (CTX-M-15 + SHV-11) | K. pneumoniae; K. pneumoniae MEK, CTX-M-15 + SHV-11, non-carbapenemase producer, porin deficiency | K. pneumoniae; K. pneumoniae OM15, NDM-1 + CTX-M-15 + SHV-130 + OXA-1 | K. pneumoniae; K. pneumoniae OMA419 (NDM-1 + OXA-1) | K. pneumoniae; K. pneumoniae OMA419, NDM-1 + OXA-1 | K. pneumoniae; strain K. pneumoniae BED, CTX-M-15 + TEM-1 + SHV-11, non-carbapenemase producer | K. pneumoniae; strain K. pneumoniae OMA419, NDM-1 + OXA-1
0.19 µg/mL: K. pneumoniae; strain K. pneumoniae 7725, SHV-1, non-carbapenemase producer | E. aerogenes; E. aerogenes 1009, TEM-24, non-carbapenemase producer
1 µg/mL: K. pneumoniae; K. pneumoniae MAD (VIM-1 + CTX-M-3) | K. pneumoniae; K. pneumoniae MAD, VIM-1+ CTX-M-3 | K. pneumoniae; K. pneumoniae RAM (OXA-48) | K. pneumoniae; K. pneumoniae RAM, OXA-48 | K. pneumoniae; K. pneumoniae TUR (IMP-1) | K. pneumoniae; K. pneumoniae TUR, IMP-1 | K. pneumoniae; K. pneumoniae TWA, IMP-8 | K. pneumoniae; strain K. pneumoniae ALE, CTX-M-15 + SHV-1, non-carbapenemase producer | K. pneumoniae; strain K. pneumoniae BEL, OXA-48 | K. pneumoniae; strain K. pneumoniae BER, SHV-28 + TEM-1, non-carbapenemase producer | K. pneumoniae; strain K. pneumoniae HOL, OXA-181 + CTX-M-15
4 µg/mL: K. pneumoniae; K. pneumoniae LOU, OXA-48 | K. pneumoniae; K. pneumoniae OM4, NDM-1 + TEM-1 + CTX-M-15 + SHV-12 + OXA-9 | K. pneumoniae; K. pneumoniae OM19, NDM-1 + CTX-M-15 + SHV-12 + OXA-1 | K. pneumoniae; K. pneumoniae YC, KPC-2 + TEM-1 + SHV-11 + SHV-12 + OXA-9
12 µg/mL: P. stuartii; P. stuartii NDM (NDM-1 + OXA-1 + CMY-6) | P. stuartii; P. stuartii PS1 (NDM-1 + CMY-6 + OXA-1) | P. stuartii; P. stuartii PS1, NDM-1 + CMY-6 + OXA-1 | P. stuartii; strain P. stuartii PS1, NDM-1 + CMY-6 + OXA-1
0.38 µg/mL: K. pneumoniae; K. pneumoniae ROB (OXA-48 + CTX-M-15 + TEM-1) | K. pneumoniae; K. pneumoniae VER, OXA-48 + TEM-1 + CTX-M-15 + SHV-11 | K. pneumoniae; strain K. pneumoniae BEN, OXA-48 + TEM-1 + CTX-M-15 + SHV-28
8 µg/mL: K. pneumoniae; K. pneumoniae OM16, NDM-1 + CTX-M-15 + OXA-1 + OXA-181 | K. pneumoniae; K. pneumoniae SIM (CTX-M-15 + TEM-1 + SHV-1) | K. pneumoniae; K. pneumoniae SIM, CTX-M-15 + TEM-1 + SHV-1, non-carbapenemase producer, porin deficiency | P. rettgeri; P. rettgeri RAP (OXA-181 + OXA-1) | P. rettgeri; P. rettgeri RAP, OXA-181 + OXA-1 | P. rettgeri; strain P. rettgeri RAP, OXA-181 + OXA-1
0.12 µg/mL: E. aerogenes; E. aerogenes 1085 (TEM-24) | E. aerogenes; E. aerogenes 1085, TEM-24, non-carbapenemase producer | E. aerogenes; strain E. aerogenes 1085, TEM-24, non-carbapenemase producer
0.5 µg/mL: K. pneumoniae; K. pneumoniae OM11, OXA-48 + TEM-1 + CTX-M-14 | K. pneumoniae; K. pneumoniae OM14, OXA-48 + TEM-1 | K. pneumoniae; K. pneumoniae OMA (OXA-181 + CTX-M-15 + OXA-1) | K. pneumoniae; K. pneumoniae OMA, OXA-181 + CTXM-15 + OXA-1 | K. pneumoniae; K. pneumoniae ROU (OXA-48 + CTX-M-15) | K. pneumoniae; K. pneumoniae ROU, OXA-48 + CTX-M-15 | K. pneumoniae; K. pneumoniae SCO (OXA-48) | K. pneumoniae; K. pneumoniae SCO, OXA-48 | K. pneumoniae; K. pneumoniae TAW, IMP-8 + SHV-12 | K. pneumoniae; strain K. pneumoniae AMS, OXA-48 + TEM-1 + CTX-M-15 + OXA-1 | K. pneumoniae; strain K. pneumoniae BAJ, OXA-48 + TEM-1 + CTX-M-15 + SHV-28 | K. pneumoniae; strain K. pneumoniae ELK, OXA-48 + TEM-1 + CTX-M-15 + SHV-11 | K. pneumoniae; strain K. pneumoniae OMA, OXA-181 + CTXM-15 + OXA-1 | K. pneumoniae; strain K. pneumoniae ROU, OXA-48 + CTX-M-15 | K. pneumoniae; strain K. pneumoniae SCO, OXA-48
16 µg/mL: K. pneumoniae; K. pneumoniae LIB, OXA-48
3 µg/mL: K. pneumoniae; K. pneumoniae OM13, NDM-1 + TEM-1 + CTX-M-15 + SHV-28 + OXA-1 + OXA-9 | K. pneumoniae; K. pneumoniae SHM (CTX-M-15 + TEM-1 + SHV-11) | K. pneumoniae; K. pneumoniae SHM, CTX-M-15 + TEM-1 + SHV-11, non-carbapenemase producer, porin deficiency
0.75 µg/mL: K. pneumoniae; K. pneumoniae MUS (KPC-2 + TEM-1 + SHV-11 + SHV-12) | K. pneumoniae; K. pneumoniae MUS, KPC-2 + TEM-1 + SHV-11 + SHV-12 | K. pneumoniae; K. pneumoniae OM2 (NDM-1 + TEM-1 + CTX-M-3 + SHV-11 + OXA-1) | K. pneumoniae; K. pneumoniae OM2, NDM-1 + TEM-1 + CTX-M-3 + SHV-11 + OXA-1 | K. pneumoniae; K. pneumoniae TIK, OXA-48 | K. pneumoniae; K. pneumoniae VSG (OXA-48 + TEM-1 + CTX-M-15 + OXA-1) | K. pneumoniae; K. pneumoniae VSG, OXA-48 + TEM-1 + CTX-M-15 + OXA-1 | K. pneumoniae; strain K. pneumoniae MUS, KPC-2 + TEM-1 + SHV-11 + SHV-12 | K. pneumoniae; strain K. pneumoniae OM2, NDM-1 + TEM-1 + CTX-M-3 + SHV-11 + OXA-1 | K. pneumoniae; strain K. pneumoniae VSG, OXA-48 + TEM-1 + CTX-M-15 + OXA-1
2 µg/mL: K. pneumoniae; K. pneumoniae OM8, NDM-1 + TEM-1 + CTX-M-15 + SHV-11 + OXA-1
>32 µg/mL: K. pneumoniae; K. pneumoniae LIE, KPC-2 + TEM-2 + OXA-9 | K. pneumoniae; K. pneumoniae OMA601, NDM-1 + CTX-M-15 + OXA-1 + OXA-9 | K. pneumoniae; K. pneumoniae UK (NDM-1 + CTX-M-15 + CMY-4 + OXA-1) | K. pneumoniae; K. pneumoniae UK, NDM-1 + CTX-M-15 + CMY-4 + OXA-1
0.25 µg/mL: K. pneumoniae; K. pneumoniae SHI (CTX-M-15 + TEM-1 + SHV-1) | K. pneumoniae; K. pneumoniae SHI, CTX-M-15 + TEM-1 + SHV-11, non-carbapenemase producer, porin deficiency | K. pneumoniae; K. pneumoniae SIC (OXA-48 + CTX-M-15 + SHV-28) | K. pneumoniae; K. pneumoniae SIC, OXA-48 + CTX-M-15 + SHV-28 | K. pneumoniae; strain K. pneumoniae 648236, SHV-2a, non-carbapenemase producer | K. pneumoniae; strain K. pneumoniae SIC, OXA-48 + CTX-M-15 + SHV-28
